Source: article PMC2363616, “Mapping the HLA-A24-restricted T-cell epitope peptide from a tumour-associated antigen HER2 / neu: possible immunotherapy for colorectal carcinomas” (British Journal of Cancer, 2001)

System: CD8+ T cells of HLA-A24 healthy donors
Assay: Primary CTL induction with peptide-pulsed autologous DCs, cytotoxicity tested on peptide-pulsed TISI
Assay type: cell-based, human
Settings: data not shown

CC(C)C[C@H](NC(=O)[C@H](CC(C)C)NC(=O)[C@H](C)NC(=O)[C@H](CC(C)C)NC(=O)[C@H](CC(C)C)NC(=O)[C@H](CC(C)C)NC(=O)CNC(=O)[C@H](Cc1c[nH]c2ccccc12)NC(=O)[C@@H](N)CCCNC(=N)N)C(=O)O [HE1]
CTL induction activity (cytotoxicity of peptide-stimulated CTLs against the peptide-pulsed TISI): showed the cytotoxicity against the peptide- pulsed TISI
